Twelve compounds from PubChem BioAssay (NCI) can be followed below.

Where “and” joins values, the source holds several entries; their conditions need not be identical. Identical values can stand only once.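 Values below derive from 48-hour exposures of cells grown in 96-well plates, with endpoints linearly interpolated between the two concentrations bracketing the appropriate inhibition level. GI50 = concentration required for 50% inhibition of growth. Definition used: TGI = concentration required for complete inhibition of growth.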

Assay in all cases: NCI anticancer screen, dose series, 48 h
Experiment [1] has as its system A549 NSCLC.
The subject of experiment [2] is IGROV1 ovarian.
In experiment [3] the test system is CCRF-CEM leukemia.
Experiment [4] has as its system NCI-H460 lung.
In experiment [5] the test system is LOX IMVI melanoma.
The subject of experiment [6] is COLO 205 colon.
The test system of experiment [7] is 786-0 renal.
The test system of experiment [8] is M14 melanoma.
Experiment [9] deals with SN12C renal.
Experiment [10] deals with NCI/ADR-RES ovarian.

Turning to `CN(C)CCCN(c1nc(C(Cl)(Cl)Cl)ns1)c1nc(C(Cl)(Cl)Cl)ns1`, the GI50 in experiment [1] is 1.63 µM; in [2], 2.27 µM; in experiment [3], 2.45 µM; in experiment [4], 1.81 µM; in [5], 1.58 µM; in experiment [6] it was 1.47 µM. Besides, the GI50 was 1.72 µM in experiment [7], 1.89 µM in experiment [8], 3.42 µM in experiment [9] and 1.89 µM in experiment [10]. Also, the TGI came to 3.78 µM in [1]; 4.92 µM in [2]; 8.03 µM in [3]; 3.56 µM in experiment [4]; 3.01 µM in experiment [5]; 2.85 µM in [6]. The TGI in [7] came out at 3.3 µM; in [8] it was 3.63 µM; in experiment [9], 11.6 µM; in experiment [10], 4.41 µM.

Regarding `COc1ccc(-c2cnc3ccnn3c2-c2cc(OC)c(OC)c(OC)c2)cc1`, the GI50 was 3.85 µM in [1]; 5.25 µM in experiment [2]; 3.52 µM in [3]; 3.39 µM in experiment [4]; 5.96 µM in [5]; 2.1 µM in [6]. Further, the GI50 is 4.31 µM in experiment [7], 2.65 µM in [8], 5.4 µM in [9] and 2.89 µM in experiment [10]. The TGI in experiment [1] is greater than 100 µM; in experiment [2] it was greater than 100 µM; in experiment [3], greater than 100 µM; in experiment [4], greater than 100 µM; in [5] it was greater than 100 µM; in experiment [6], 5.51 µM. Moreover, the TGI in experiment [7] was greater than 100 µM; in experiment [8], 35.5 µM; in experiment [9], greater than 100 µM; in experiment [10] it was greater than 100 µM.

As for `c1cc(OCCN2CCCCCC2)ccc1CNc1ccc2nc(CCC3CCCCC3)[nH]c2c1`, the GI50 was 3.05 µM in experiment [1]; 2.04 µM in experiment [2]; 2.08 µM in experiment [3]; 2.06 µM in experiment [4]; 1.74 µM in [5]; 1.81 µM in experiment [6]. The GI50 is 1.6 µM in experiment [7], 1.72 µM in experiment [8], 1.64 µM in [9] and 2.64 µM in experiment [10]. The TGI in experiment [1] is 11 µM; in experiment [2] it was 7.31 µM; in experiment [3], 10.1 µM; in experiment [4], 4.64 µM; in experiment [5] it was 3.2 µM; in [6], 3.57 µM. Besides, the TGI amounted to 3.29 µM in [7], 3.32 µM in [8], 4.57 µM in [9] and 8.66 µM in [10].

Regarding `Cc1cccc2c(N=Nc3ccc(S(N)(=O)=O)cc3)c(O)[nH]c12`, the GI50 in [1], in experiment [2], in [3], in [4], in experiment [5] and in experiment [6] was greater than 25 µM each time. Besides, the GI50 in experiment [7], in experiment [8], in experiment [9] and in experiment [10] was greater than 25 µM each time. For the same compound, the TGI in experiment [1], in experiment [2], in experiment [3], in experiment [4], in [5] and in experiment [6] was greater than 25 µM in each case. For the same compound, the TGI in experiment [7], in experiment [8], in experiment [9] and in experiment [10] was greater than 25 µM throughout.

For the compound `O=C1/C(=C\C(Cl)=C/c2ccc([N+](=O)[O-])cc2)SC(=S)N1CCc1ccc(O)cc1`, the GI50 was 1.6 µM in [1]; 0.512 µM in [2]; 0.31 µM in experiment [3]; 1.82 µM in [4]; 0.187 µM in experiment [5]; 0.882 µM in experiment [6]. The GI50 in [7] was 0.255 µM; in [8] it was 0.494 µM; in experiment [9], 0.33 µM; in experiment [10], 0.342 µM. Moreover, the TGI in experiment [1] was found to be 8.79 µM; in [2] it was 1.68 µM; in [3] it was 5.67 µM; in experiment [4], 4.05 µM; in experiment [5] it was 0.387 µM; in experiment [6] it was 3.64 µM. The TGI came to 0.707 µM in [7], 1.84 µM in experiment [8], 1.38 µM in experiment [9] and 1.78 µM in experiment [10].

As to `Clc1cc(Cl)c(Cl)c(-c2nc(-c3cccnc3)cs2)c1`, the GI50 is 24.8 µM in [1]; 32.8 µM in experiment [2]; 8.52 µM in experiment [3]; 37.7 µM in [4]; 16 µM in experiment [5]; 13.6 µM in experiment [6]. In addition, the GI50 in experiment [7] is 12.9 µM; in [8], 4.47 µM; in experiment [9], 24.9 µM; in experiment [10], 8.78 µM. Further, the TGI is greater than 100 µM in experiment [1]; greater than 100 µM in experiment [2]; 42 µM in experiment [3]; greater than 100 µM in experiment [4]; 37.6 µM in [5]; 41.4 µM in experiment [6]. In addition, the TGI in [7] was 29.8 µM; in experiment [8], greater than 100 µM; in experiment [9], greater than 100 µM; in experiment [10], greater than 100 µM.

As for `C=C1C(=O)O[C@@H]2C(=O)[C@@H](C)[C@@H]3C=CC(=O)[C@@]3(C)[C@@H](OC(=O)/C(C)=C\C)[C@H]12`, the TGI in experiment [1] turned out to be 32.6 µM; in experiment [2] it was 3.28 µM; in experiment [3], 2.24 µM; in [4], 6.05 µM; in experiment [5] it was 1.6 µM; in experiment [6], 0.725 µM. Besides, the TGI in experiment [7] worked out at 1 µM; in [8], 8.2 µM; in experiment [9] it was 2.85 µM; in [10], 7.28 µM.

Regarding `Cc1cc(O)c(C(c2cccnc2)c2c(O)cc(C)[nH]c2=O)c(=O)[nH]1`, the TGI in experiment [1], in experiment [2], in [3], in experiment [4], in experiment [5] and in [6] was greater than 100 µM throughout. The TGI in experiment [7], in experiment [8], in [9] and in experiment [10] was greater than 100 µM throughout.

As for `S=c1nc2[nH]ncc2c(N/N=C/c2ccccc2)[nH]1`, the GI50 in [1] was 98.3 µM; in experiment [2], 45.4 µM; in [3] it was 78.6 µM; in experiment [4], 93.6 µM; in [5], 64 µM; in experiment [6] it was greater than 100 µM. The GI50 in experiment [7], in experiment [8], in experiment [9] and in experiment [10] was greater than 100 µM in each case. Also, the TGI in experiment [1], in [2], in experiment [3], in experiment [4], in [5] and in experiment [6] was greater than 100 µM throughout. Also, the TGI in experiment [7], in [8], in [9] and in experiment [10] was greater than 100 µM throughout.

As for `Cc1c2c(nn1C(=O)c1nn(-c3ccc(Cl)cc3)cc1O)-c1ccccc1CC2`, the GI50 in experiment [1] is 0.0343 µM; in experiment [2] it was 0.0429 µM; in experiment [3], 0.0477 µM; in experiment [4] it was 0.0237 µM; in [5], 0.0722 µM; in [6] it was 0.323 µM. Further, the GI50 in experiment [7] was 0.319 µM; in experiment [8] it was 0.0842 µM; in experiment [9], 0.0403 µM; in experiment [10], 0.0495 µM. For the same compound, the TGI in [1] was greater than 100 µM; in [2], greater than 100 µM; in [3], greater than 49.1 µM; in experiment [4] it was 0.0613 µM; in experiment [5], greater than 100 µM; in experiment [6], 4.22 µM. Besides, the TGI in [7] was greater than 64.1 µM; in experiment [8] it was greater than 45.5 µM; in experiment [9], greater than 100 µM; in experiment [10], greater than 100 µM.

Consider `CNNCc1ccc(C(=O)NC(C)C)cc1`, for which the GI50 in [1], in experiment [2] and in experiment [7] was greater than 500 µM in each case. Further, the TGI in [1], in experiment [2], in [3], in experiment [4], in [5] and in [6] was greater than 500 µM each time. Moreover, the TGI in experiment [7], in [8], in experiment [9] and in experiment [10] was greater than 500 µM throughout.

As to `CC(=O)O[C@H]1C(=O)O[C@@H]2C[C@H]3C(C)=CC(=O)[C@@H](O)[C@]3(C)[C@H]3[C@@]4(O)OC[C@]32[C@@H]1[C@@H](C)[C@H]4O`, the GI50 in experiment [1] is 0.23 µM and 0.431 µM; in experiment [2], less than 0.01 µM; in experiment [3], 0.015 µM; in experiment [4], 0.0136 µM and 0.0427 µM; in experiment [5], less than 0.01 µM; in experiment [6], 0.136 µM. Besides, the GI50 is 0.0304 µM in [9] and 0.844 µM in [10]. Also, the TGI in experiment [1] was 3.32 µM and 3.93 µM; in experiment [2], 1.4 µM and 0.247 µM; in experiment [3], 0.073 µM and 0.572 µM; in experiment [4] it was 0.187 µM; in [5], 0.0642 µM and 0.442 µM; in experiment [6], 0.365 µM and 0.686 µM. In addition, the TGI was 0.14 µM in experiment [7]; 0.0838 µM in experiment [8]; 15.2 µM and 51.4 µM in [10].
